Experimental data as given in paper PMC7311950, “Potent Tetrahydroquinolone Eliminates Apicomplexan Parasites” (Frontiers in Cellular and Infection Microbiology, 2020).
Values after ≈ are worked out from the molar mass of the structure shown. Read-outs that look alike come from different tables or passages of the source.

Key:
HepG2 cells = test: Cytotoxicity with HepG2 cells; assay type: cell-based; settings: Homo sapiens
Protocol: Toxicity studies also were performed with HepG2 cells (human liver cancer immortal cell line derived from the liver tissue of a […]) in parallel with the studies of P. falciparum, with inhibitors in vitro, as described in McPhillie et al. ([2016]).

[1] = Metabolic stability in human liver microsomes; settings: for Human liver microsomes: stability, Figure 2E
Protocol: (§1) The effects of changing R1 as 7-Et, 7-Me, 6-CF3, or 6-Me on activity against RH strain tachyzoites, kinetic solubility, and metabolic stability were compared. Kinetic solubility and metabolic stability in human or murine liver microsomes were measured. The hERG (human Ether-à-go-go-Related) liability was also determined. The hERG gene (KCNH2) encodes a protein Kv11.1, the alpha subunit of a potassium ion channel. This channel conducts the rapid component of the delayed rectifier potassium current, IKr, which is critical for repolarization of cardiac action potentials. A reduction in hERG currents from adverse drug effects can lead to long QT interval syndromes. These syndromes are characterized by action potential prolongation, lengthening of the QT interval on surface EKG, and an increased risk for “torsade de pointes” arrhythmias and sudden death. The MDCK-MDR1 Permeability Assay was also performed. MDCK-MDR1 refers to the ability of a compound to permeate across membranes of MDCK-MDR1 (Madin Darby canine kidney [MDCK] cells with the MDR1 gene [ABCB1], the gene encoding for the efflux protein, P-glycoprotein (P-gp)) in vitro. Assessing transport in both directions (apical to basolateral and basolateral to apical) across the cell monolayers enables an efflux ratio to be determined. […] This provides a prediction of blood brain barrier (BBB) penetration potential/permeability and efflux ratio. Effect in CACO-2 (Colon Adenocarcinoma cells) as a permeability assay and on cytochrome P450 (CYP 450) were also determined. CYP enzymes catalyze oxidative biotransformation (phase 1 metabolism) of most drugs. CYP enzymes, bind to membranes in a cell (cyto) and contain a heme pigment (chrome and P) that absorbs light at a wavelength of 450 nm when exposed to carbon monoxide. Metabolism of a drug by CYP enzymes is a major source of variability in drug effect. These were measured by Chem Partners. The relative effect on HFF and parasite enzymes also were compared.
(§2) In vitro absorption, distribution, metabolism, excretion, and toxicity (ADMET) analyses of the THQ compounds were outsourced to ChemPartner Shanghai Ltd. ELQ-271 (synthesized in-house) was tested as a comparison.

[2] = tested on: T. gondii RH-YFP tachyzoites; test: In vitro challenge assay, RH strain YFP tachyzoites in HFF; assay type: cell-based; settings: Toxoplasma gondii
[3] = Metabolic stability in mouse liver microsomes; settings: for half-life: mouse, liver microsomes
Protocol: as §1, §2

[4] = Kinetic solubility in PBS pH 7.4 (Chem Partners)
Protocol: as §1

hERG = hERG (Homo sapiens, UniProt Q12809); test: hERG liability; assay type: biochemical
hERG, sequence (Q12809 whole entry): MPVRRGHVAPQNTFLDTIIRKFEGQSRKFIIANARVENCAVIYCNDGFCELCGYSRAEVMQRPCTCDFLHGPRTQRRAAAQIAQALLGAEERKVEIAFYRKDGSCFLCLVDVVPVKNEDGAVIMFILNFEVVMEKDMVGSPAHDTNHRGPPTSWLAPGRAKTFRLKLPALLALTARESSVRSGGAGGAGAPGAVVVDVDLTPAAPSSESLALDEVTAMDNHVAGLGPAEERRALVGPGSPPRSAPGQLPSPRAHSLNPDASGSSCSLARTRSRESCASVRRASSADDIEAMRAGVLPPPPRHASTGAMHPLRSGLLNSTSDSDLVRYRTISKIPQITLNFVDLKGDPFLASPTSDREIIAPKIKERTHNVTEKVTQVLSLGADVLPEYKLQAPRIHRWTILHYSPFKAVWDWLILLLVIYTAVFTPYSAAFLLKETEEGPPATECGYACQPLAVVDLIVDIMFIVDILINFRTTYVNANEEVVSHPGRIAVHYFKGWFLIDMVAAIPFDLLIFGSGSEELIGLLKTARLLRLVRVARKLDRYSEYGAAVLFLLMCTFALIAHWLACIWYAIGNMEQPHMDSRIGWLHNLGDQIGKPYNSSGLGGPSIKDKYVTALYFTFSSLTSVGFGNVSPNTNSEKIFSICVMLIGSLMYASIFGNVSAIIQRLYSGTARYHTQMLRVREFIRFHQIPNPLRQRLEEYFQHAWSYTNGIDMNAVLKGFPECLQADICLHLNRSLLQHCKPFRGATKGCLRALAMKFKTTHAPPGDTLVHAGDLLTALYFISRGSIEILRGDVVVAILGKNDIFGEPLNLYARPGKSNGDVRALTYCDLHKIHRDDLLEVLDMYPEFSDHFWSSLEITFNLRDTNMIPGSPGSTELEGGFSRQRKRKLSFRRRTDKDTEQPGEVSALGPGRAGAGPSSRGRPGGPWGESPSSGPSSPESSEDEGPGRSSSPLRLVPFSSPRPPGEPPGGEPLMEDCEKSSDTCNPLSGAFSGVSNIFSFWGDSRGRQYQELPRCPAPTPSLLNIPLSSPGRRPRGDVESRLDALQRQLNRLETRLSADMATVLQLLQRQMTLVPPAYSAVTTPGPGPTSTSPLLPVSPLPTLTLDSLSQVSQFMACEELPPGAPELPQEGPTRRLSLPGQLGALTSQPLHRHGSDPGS

T. gondii RH tachyzoites = test: RH YFP challenge, oral nanoformulation of JAG21; assay type: in vivo, Toxoplasma gondii; settings: for parasite burden reduced: peritoneal fluid 5 days later
Protocol: JAG21 was prepared using hydroxyethyl cellulose (HEC) and Tween 80. Briefly, this dispersant solution containing 5 mg/mL HEC and 2 mg/mL Tween 80 in water was prepared. Solid JAG21 was added to 20 mg/mL, and the dispersion was sonicated for 60 s using a Sonics vc50 probe-tip sonicator set to 20 kHz to homogenize. Sonication was performed at room temperature. Aliquots of the homogeneous dispersion were frozen and lyophilized using a VirTis AdVantage freeze drier. These aliquots were stored at room temperature for 5–6 months. Prior to dosing, aliquots were reconstituted using water. Controls containing no JAG21 were also prepared. Following reconstitution with water, the dispersion was imaged using a Nikon ECLIPSE E200 optical microscope set to 40x magnification. The average particle size of the JAG21 dispersion in HEC/Tween 80 was determined using an in-house image analysis program. This novel method to stably formulate JAG21 was discovered after all other studies were completed and this was the last experiment in this manuscript performed as a consequence.
For studies of the nano formulated JAG 21, this was administered for 1 or 3 days by gavage in the doses shown in the results section. These C57BL6 background mice received 2000 RH tachyzoites IP. on day the first day of the experiment and peritoneal fluid was collected 5 days later to quantitate fluorescence and numbers of parasites.

[5] = dose response testing, read-out: HEP G2 IC50
[6] = RH-YFP tachyzoites in HFF, Figure 1A, read-out: Tachy IC50
[7] = T. gondii tachyzoites, initial library, read-out: IC50
[8] = T1/2 (M), predicted half-life in mouse liver microsomes, Figure 1A, min in Figure 2E for the same values
[9] = PBS, pH 7.4, aqueous solubility (PBS, pH 7.4), amorphous compounds

| SMILES | IC50 (HepG2 cells; [5]) | half-life ([1]; human, liver microsomes) | Human liver microsomes [1] | IC50 [2, 6] | IC50 [2, 7] | Mouse liver microsomes [3] | half-life [3, 8] | solubility [4, 9] | solubility ([4]; pH 7.4) | IC50 (HepG2 cells; supplement summary, read-out: IC50, human HepG2 cells) | remaining in human liver microsomes ([1]; after 45 min) | IC90 ([2]; supplement summary) | half-life ([3]; half-life in mouse liver microsomes) | Mouse liver microsomes ([3]; stability, Figure 2E) | IC50 (hERG) | solubility ([4]; PBS, pH 7.4, solubility of the microcrystalline form, microcrystalline form) | parasite burden reduced (T. gondii RH tachyzoites; single dose 10 mg/kg) | parasite burden reduced (T. gondii RH tachyzoites; single dose 20 mg/kg) | parasite burden (T. gondii RH tachyzoites; three doses of 10 mg/kg on first 3 days, fifth day) |
| --- | --- | --- | --- | --- | --- | --- | --- | --- | --- | --- | --- | --- | --- | --- | --- | --- | --- | --- | --- |
| Cc1[nH]c2c(c(=O)c1-c1ccc(Oc3ccc(Cl)cc3)cc1)CCCC2 [JAG50] | 7.1 µM | 1.65 h | 99.04 min | 0.085 µM | 0.033 µM | 68.55 min | 1.14 h | 16 µM (≈ 5.85 µg/mL) | 16.4 µM (≈ 6 µg/mL) |  |  |  |  |  |  |  |  |  |  |
| Cc1[nH]c2c(c(=O)c1-c1ccc(Oc3ccc(OC(F)(F)F)cc3)cc1)CCCC2 [JAG21, 2-Methyl-3-(4-(4-(Trifluoromethoxy)Phenoxy)Phenyl)-5,6,7,8-Tetrahydroquinolin-4-One] | 17.7 µM |  | ∞ | 0.12 µM | 0.055 µM |  | 1.68 h | 7 µM (≈ 2.91 µg/mL) | 7.07 µM (≈ 2.94 µg/mL) | > 17 µM | > 99% | < 0.05 µM | 1.68 h | 101.09 min | 22 µM | 3.5 µM (≈ 1.45 µg/mL) | ~ 60% | ~ 60% | markedly reduced |
